Experimental data taken from patent US12286418B2, “Compounds and methods for treating or preventing bacterial infections” (priority 2019, dated 2025).
“Also recorded” adds a separate entry of the source. Like-named read-outs stand apart in the source and are kept apart here.

Key:
E. coli MG1655OXA-48 = test: Bacterial susceptibility (MIC, broth microdilution) of E. coli expressing OXA-48; assay type: cell-based; settings: for MIC: Escherichia coli
Protocol: Bacterial susceptibility was specifically tested using minimum inhibitory concentration assays. Susceptibility assays were performed with E. coli strains using broth in a microplate set up. Two-fold dilutions of antibiotic and/or inhibitor were used. For susceptibility tests, bacterial strains were transformed with plasmids containing OXA-48 with its endogenous signal sequence for periplasmic migration (cloned into pTP123 vector) (Majiduddin & Palzkill, 2003, Antimicrob. Agents Chemother. 47:1062-1067). pTP123 was cut with XbaI and SacI and the linearized fragment was assembled using Gibson assembly (New England Biolabs, Ipswich, MA) its signal sequence cloned in by using Gibson assembly. Bacteria were grown in Mueller-Hinton broth with 12.5 μg/mL chloramphenicol (plasmid marker) overnight. An overnight culture was diluted 1:10^4 into the final well solutions (100 uL total) and incubated for 16-18 hours. After incubation, microplates were read using a Tecan plate reader at absorbance 600. Growth was objectively defined as yielding an absorbance ≥2 times the absorbance of the negative control (media and no culture). Experiments were repeated with new bacterial inoculums each time.
Effective β-lactamase inhibitors synergize with β-lactam antibiotics and ultimately lower the minimum inhibitory concentration (MIC) of antibiotic needed to kill the bacteria. MIC studies were performed with ampicillin (AMP), a β-lactam antibiotic readily hydrolyzed by OXA-48, against E. coli strain MG1655 expressing OXA-48 (MG1655OXA-48). The OXA-48 plasmid construct contained the endogenous signal sequence of OXA-48 for secretion to the periplasm, which was expressed under a trc-promoter, allowing leaky expression in the absence of IPTG inducer. All MICs were performed by broth microdilution with 2-fold dilutions of antibiotic and/or inhibitor (FIG. 6A). The ampicillin (AMP) and imipenem (IMP) MICs were separately determined for a range of CDD-97 and avibactam concentrations. […] In the absence of bacteria, the media (Mueller Hinton) gives an absorbance reading of 0.04 so absorbance readings greater than or equal to two-fold the control were considered bacterial growth. […] CDD-97 was tested for its synergistic ability by determining AMP MICs with a range of CDD-97 concentrations (up to 256 μg/ml).
Impermeability of the outer membrane to small molecules is a major challenge for the development of therapeutics for Gram-negative bacterial infections. β-lactamases, including OXA-48, reside in the periplasmic space and so inhibitors must traverse the outer membrane to be effective. To determine whether low permeability caused the poor in vivo activity of CDD-97, an accumulation assay (Richter, et al., 2017, Nature 545:299-304) was performed to quantify the amount of CDD-97 present in E. coli cells after incubation. In the assay, tetracycline was used as a positive control while fusidic acid and clindamycin were used as negative controls (Richter, et al., 2017, Nature 545:299-304). Controls and CDD-97 were separately incubated with wildtype E. coli (MG1655) cells and then these cells were centrifuged through silicone oil to separate free, unaccumulated compound from the cell pellet. Cell lysates were collected by freeze-thawing and analyzed by mass spectrometry to quantify the amount of accumulated compound. Compared to tetracycline, CDD-97 was present in cells at 20-fold lower levels (FIG. 6B). […] The finding that CDD-97 accumulates inefficiently across the outer membrane was also examined by adding sub-lethal concentrations of colistin to the ampicillin/CDD-97 MIC assays. Colistin is known to disrupt the outer membrane and enhance permeability in E. coli. If the outer membrane is a barrier for CDD-97, it was predicted that the addition of sub-lethal concentrations of colistin would enhance the activity of CDD-97 against E. coli. […]

OXA-24 = target: T1, OXA-24 (Acinetobacter baumannii, UniProt Q8RLA6); test: Inhibition of other OXA enzymes (nitrocefin reporter): OXA-24; assay type: biochemical
T1 construct: His-tag (N, cleaved yes); made in house; host or cells: E. coli BL21 (DE3), pET28a
T1 sequence (Q8RLA6 entry or part of it): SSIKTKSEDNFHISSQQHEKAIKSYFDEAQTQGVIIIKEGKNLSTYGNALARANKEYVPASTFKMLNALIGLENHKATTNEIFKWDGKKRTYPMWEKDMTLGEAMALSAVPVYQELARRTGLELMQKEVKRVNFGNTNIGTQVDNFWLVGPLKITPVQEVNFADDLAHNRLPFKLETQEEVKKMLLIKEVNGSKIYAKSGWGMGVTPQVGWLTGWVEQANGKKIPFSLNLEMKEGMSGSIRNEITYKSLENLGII
Protocol: Compounds were tested for inhibition of a given OXA enzyme from hydrolyzing nitrocefin using a Tecan plate reader. […] A control with no compound was included in each run. For each compound concentration, the velocity of nitrocefin hydrolysis was determined at 482 nm and fit to the Morrison equation. […] The average Ki of separate experiments, each of which consisted of duplicate runs, is reported and error was quantified as the standard deviation.
The high sequence diversity of class D β-lactamases has made it difficult to find a class-wide inhibitor. The inhibition activity of CDD-97 was tested against other OXA-enzymes of varying sequence identity, to assess its spectrum of activity (Table 2). OXA-10 is regarded as the canonical OXA, however it is not a major clinical threat as it mainly hydrolyzes penicillins. OXA-58 is another carbapenemase unable to hydrolyze extended-spectrum cephalosporins like OXA-48. Both OXA-48 and OXA-58 are predominantly found in gram-negative bacteria, however OXA-48 is prevalent in the Enterobacteriaceae family (mainly Klebsiella pneumoniae), while OXA-58 is found in the Moraxellaceae family (mainly Acintobacter baumannii). While K. pneumoniae is more rampant in the clinics and most OXA-mediated carbapenem is due to OXA-48, A. baumannii nosocomial infections are a growing issue. OXA-163 is an OXA-48 like enzyme also prevalent in Enterobacteriaceae. […]

## CCOc1ccccc1N1CCN(c2ncnc(N3CCC(C(=O)O)CC3)n2)CC1 [CDD-97, 1-(4-(4-(2-ethoxyphenyl)piperazin-1-yl)-1,3,5-triazin-2-yl)piperidine-4-carboxylic acid]
E. coli MG1655OXA-48; E. coli expressing OXA-48, CDD-97 up to 256 μg/mL, avibactam up to 4 μg/mL
  synergy with β-lactam antibiotics (effect on AMP/IMP MIC) in words: did not synergize with ampicillin; also recorded: no synergy was seen between CDD-97 and imipenem; also recorded: colistin potentiates the activity of CDD-97; also recorded: synergizes weakly
E. coli MG1655OXA-48; MG1655OXA48, read-out: AMP MIC, with 4 μg/mL CDD-97
  MIC: 1020 µg/mL
E. coli MG1655OXA-48; MG1655OXA48, read-out: AMP MIC, with 8 μg/mL CDD-97
  MIC: 512 µg/mL
E. coli MG1655OXA-48; MG1655OXA48, read-out: AMP MIC, with 16 μg/mL CDD-97
  MIC: 512 µg/mL
E. coli MG1655OXA-48; MG1655OXA48, read-out: AMP MIC, with 32 μg/mL CDD-97
  MIC: 512 µg/mL
E. coli MG1655OXA-48; MG1655OXA48, read-out: AMP MIC, with 64 μg/mL CDD-97
  MIC: 512 µg/mL
E. coli MG1655OXA-48; MG1655OXA48, read-out: AMP MIC, with 128 μg/mL CDD-97
  MIC: 512 µg/mL
E. coli MG1655OXA-48; MG1655OXA48, read-out: AMP MIC, with 256 μg/mL CDD-97
  MIC: 512 µg/mL
E. coli MG1655OXA-48; MG1655OXA48, read-out: AMP MICs, (+) CDD-97 (16 μg/mL), colistin 0 μg/mL
  MIC: 1020 µg/mL
E. coli MG1655OXA-48; MG1655OXA48, read-out: AMP MICs, (+) CDD-97 (16 μg/mL), colistin 0.0625 μg/mL
  MIC: 512 µg/mL
E. coli MG1655OXA-48; MG1655OXA48, read-out: AMP MICs, (+) CDD-97 (16 μg/mL), colistin 0.125 μg/mL
  MIC: 1020 µg/mL
E. coli MG1655OXA-48; MG1655OXA48, read-out: AMP MICs, (+) CDD-97 (16 μg/mL), colistin 0.25 μg/mL
  MIC: 256 µg/mL
E. coli MG1655OXA-48; MG1655OXA48, read-out: AMP MICs, (+) CDD-97 (16 μg/mL), colistin 0.5 μg/mL
  MIC: 128 µg/mL
E. coli MG1655OXA-48; MG1655OXA48, read-out: AMP MICs, (+) CDD-97 (16 μg/mL), colistin 1 μg/mL
  MIC: 8 µg/mL
E. coli MG1655OXA-48; MG1655OXA48, read-out: IMP MIC, with 4 μg/mL CDD-97
  MIC: 0.625 µg/mL
E. coli MG1655OXA-48; MG1655OXA48, read-out: IMP MIC, with 8 μg/mL CDD-97
  MIC: 0.312 µg/mL
E. coli MG1655OXA-48; MG1655OXA48, read-out: IMP MIC, with 16 μg/mL CDD-97
  MIC: 0.312 µg/mL
E. coli MG1655OXA-48; MG1655OXA48, read-out: IMP MIC, with 32 μg/mL CDD-97
  MIC: 0.312 µg/mL
E. coli MG1655OXA-48; MG1655OXA48, read-out: IMP MIC, with 64 μg/mL CDD-97
  MIC: 0.312 µg/mL
E. coli MG1655OXA-48; MG1655OXA48, read-out: IMP MIC, with 128 μg/mL CDD-97
  MIC: 0.312 µg/mL
E. coli MG1655OXA-48; MG1655OXA48, read-out: IMP MIC, with 256 μg/mL CDD-97
  MIC: 0.625 µg/mL
OXA-24
  Ki: 14 ± 1 µM
